Read-outs that look alike come from different tables or passages of the source. Starred links: 1 amine or outer side, 2 acyl side, 3 side chain; linkers in the order of their positions; H or OH if unused. Positions of bridges follow the written chain, without caps; N, C: chain ends. Non-standard residues stand in square brackets, D forms with d. Residues, ends and D or L forms follow the SMILES beside them. Groups on a side chain read outwards from the residue. *: point of attachment. X1 = C[N+](C)(CCNC(=O)CCCCCCCCCCCCCCCCC(=O)O)CC(=O)*; C18 diacid = O=C(O)CCCCCCCCCCCCCCCCC(=O)*; Dip = N[C@H](C(=O)O)C(c1ccccc1)c1ccccc1; Phenylacetyl(4-F) = O=C(Cc1ccc(F)cc1)*; γGlu = O=C(O)[C@H](CCC(=O)[*:2])N[*:1]; 1Nal = N[C@@H](Cc1cccc2ccccc12)C(=O)O; Palmitoyl = CCCCCCCCCCCCCCCC(=O)*; NMeF = CN[C@@H](Cc1ccccc1)C(=O)O; dNMeF = CN[C@H](Cc1ccccc1)C(=O)O; β3hF = N[C@H](CC(=O)O)Cc1ccccc1; NMeK = CN[C@@H](CCCCN)C(=O)O; Nicotinoyl = O=C(c1cccnc1)*; Isovaleryl = CC(C)CC(=O)*; NMeS = CN[C@@H](CO)C(=O)O; hCys = N[C@@H](CCS)C(=O)O; Dap = NC[C@H](N)C(=O)O; AEEA = NCCOCCOCC(=O)O; Ahx = NCCCCCC(=O)O
Assays:
[1] = target: T1, ferroportin (Homo sapiens, UniProt Q9NP59); test: FPN activity assay: ferroportin-GFP internalization/degradation in HEK293 cells; type: cell-based; design: expressed in transfected cells; settings: read-out: FPN IC50
T1 sequence (Q9NP59 1-571): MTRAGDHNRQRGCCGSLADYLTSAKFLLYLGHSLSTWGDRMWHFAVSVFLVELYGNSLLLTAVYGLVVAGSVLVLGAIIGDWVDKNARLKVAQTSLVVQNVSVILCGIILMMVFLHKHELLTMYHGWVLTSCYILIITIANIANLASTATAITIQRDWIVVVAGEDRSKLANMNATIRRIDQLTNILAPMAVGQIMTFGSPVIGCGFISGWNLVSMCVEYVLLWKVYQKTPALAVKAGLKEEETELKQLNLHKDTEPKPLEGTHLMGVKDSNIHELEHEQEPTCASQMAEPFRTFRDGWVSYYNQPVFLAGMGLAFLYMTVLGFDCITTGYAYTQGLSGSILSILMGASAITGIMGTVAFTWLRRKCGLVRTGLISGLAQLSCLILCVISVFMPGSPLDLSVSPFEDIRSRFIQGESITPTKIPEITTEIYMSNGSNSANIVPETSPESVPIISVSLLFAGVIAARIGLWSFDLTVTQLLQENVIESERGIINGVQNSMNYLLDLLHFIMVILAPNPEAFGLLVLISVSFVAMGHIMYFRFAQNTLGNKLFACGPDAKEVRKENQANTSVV
Protocol: Following internalization, the ferroporin protein is degraded.
A retro inverse peptide is a peptide with a reversed sequence in all D amino acids. An example is that Hy-Glu-Thr-His-NH2 becomes Hy-DHis-DThr-DGlu-NH2. The EC50 of these reference compounds for ferroportin internalization/degradation was determined according to the FPN activity assay described above. These peptides served as control standards.

[2] = target: T1, ferroportin; test: T47D cell-based ferroportin internalization assay in presence of mouse serum albumin (MSA); design: a human breast carcinoma adherent cell line which endogenously expresses ferroportin; host or cells: T47D
How it was run: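 Peptide potency for inducing ferroportin internalization was measured in T47D cells in the presence of serum albumin. Cells grown in RPMI with fetal bovine serum were seeded in 96-well plates at 80-100 k cells per well in 100 ul and rested overnight. Dilution series of test peptides were preincubated 30 min at room temperature, then added to the cells after the medium was aspirated.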

[3] = ferroportin-GFP HEK293 cells, at least 18 hours
[4] = T47D cells, 0.5% mouse serum albumin, 1 hr incubation
[5] = ferroportin-GFP internalization/degradation, HEK293 cells, Table 6E
[6] = T47D internalization assay in presence of mouse serum albumin (MSA), Table 6E
[7] = Table 6E, ferroportin-GFP internalization/degradation, at least 18 hours incubation
[8] = Table 6E, T47D internalization assay with MSA

| DC50 [1, 3] [nM] | IC50 [2, 4] [nM] | DC50 [1, 5] [nM] | IC50 [2, 6] [nM] | SMILES | further results |
| --- | --- | --- | --- | --- | --- |
| 10 to 100 | 10 to 100 |  |  | CC(C)CC(=O)N[C@@H](CCC(=O)O)C(=O)N[C@H](C(=O)N[C@@H](Cc1c[nH]cn1)C(=O)N[C@H](C(=O)N1CCC[C@H]1C(=O)N[C@H]1CSSC[C@@H](C(=O)N[C@@H](CCCCNC(=O)COCCOCCNC(=O)COCCOCCNC(=O)[C@H](CN)NC(=O)CCCCCCCCCCCCCCCCC(=O)O)C(=O)N[C@H](CC(=O)N[C@H](CCCCN)C(N)=O)Cc2ccccc2)NC1=O)C(c1ccccc1)c1ccccc1)[C@@H](C)O [Compd 41] (Isovaleryl-ETH[Dip]PCCK([AEEA-AEEA-Dap-C18 diacid])[β3hF][dK]-NH2; disulfide 6-7) |  |
| 10 to 100 | 1 to 10 |  |  | CCCCCCCCCCCCCCCC(=O)NCCCCCC(=O)NCCCC[C@H](NC(=O)C[C@H](Cc1ccccc1)NC(=O)[C@@H](CCCCN)NC(=O)[C@@H](NC(=O)[C@H](C)NC(=O)[C@@H]1CSSC[C@H](NC(=O)[C@H](CCC(=O)O)NC(=O)CC(C)C)C(=O)N[C@@H](Cc2c[nH]cn2)C(=O)N[C@@H](C(c2ccccc2)c2ccccc2)C(=O)N1)[C@@H](C)CC)C(=O)N[C@H](CCCCN)C(=O)N[C@@H](C)C(N)=O [Compd 45] (Isovaleryl-ECH[Dip]CAI[dK][β3hF]K([Ahx-Palmitoyl])[dK]A-NH2; disulfide 2-5) |  |
|  |  | 10 to 100 | 1 to 10 | CC(C)CC(=O)N[C@@H](CCC(=O)O)C(=O)N[C@H](C(=O)N[C@@H](Cc1cnc[nH]1)C(=O)N[C@H](C(=O)N1CCC[C@H]1C(=O)N[C@H]1CSSC[C@@H](C(=O)N(C)[C@@H](CCCCNC(=O)COCCOCCNC(=O)COCCOCCNC(=O)[C@H](CN)NC(=O)CCCCCCCCCCCCCCCCC(=O)O)C(=O)N[C@H](CC(=O)N[C@H](CCCCN)C(=O)N(C)[C@H](Cc2ccccc2)C(N)=O)Cc2ccccc2)NC1=O)C(c1ccccc1)c1ccccc1)[C@@H](C)O [compound 250] (Isovaleryl-ETH[Dip]PCC[NMeK]([AEEA-AEEA-Dap-C18 diacid])[β3hF][dK][dNMeF]-NH2; disulfide 6-7) |  |
|  |  | 10 to 100 | 10 to 100 | C[C@@H](O)[C@H](NC(=O)[C@H](CCC(=O)O)NC(=O)Cc1ccc(F)cc1)C(=O)N[C@@H](Cc1c[nH]cn1)C(=O)N[C@H](C(=O)N1CCC[C@H]1C(=O)N[C@H]1CSSC[C@@H](C(=O)N(C)[C@@H](CCCCNC(=O)COCCOCCNC(=O)COCCOCCNC(=O)[C@H](CN)NC(=O)CCCCCCCCCCCCCCCCC(=O)O)C(=O)N[C@H](CC(=O)N[C@H](CCCCN)C(N)=O)Cc2ccccc2)NC1=O)C(c1ccccc1)c1ccccc1 [compound 298] ({Phenylacetyl(4-F)}-ETH[Dip]PCC[NMeK]([AEEA-AEEA-Dap-C18 diacid])[β3hF][dK]-NH2; disulfide 6-7) |  |
|  |  | 10 to 100 | 10 to 100 | CC(C)CC(=O)N[C@@H](CCC(=O)O)C(=O)N[C@H](C(=O)N[C@@H](Cc1c[nH]cn1)C(=O)N[C@H](C(=O)N1CCC[C@H]1C(=O)N[C@H]1CSSC[C@@H](C(=O)N(C)[C@@H](CCCCNC(=O)COCCOCCNC(=O)COCCOCCNC(=O)[C@H](CN)NC(=O)CCCCCCCCCCCCCCCCC(=O)O)C(=O)N[C@H](CC(=O)N[C@H](CCCCN)C(=O)N[C@@H](Cc2cccc3ccccc23)C(N)=O)Cc2ccccc2)NC1=O)C(c1ccccc1)c1ccccc1)[C@@H](C)O [compound 258] (Isovaleryl-ETH[Dip]PCC[NMeK]([AEEA-AEEA-Dap-C18 diacid])[β3hF][dK][1Nal]-NH2; disulfide 6-7) |  |
|  |  |  |  | COC(=O)CC[C@H](NC(=O)CC(C)C)C(=O)N[C@H](C(=O)N[C@@H](Cc1c[nH]cn1)C(=O)N[C@H](C(=O)N1CCC[C@H]1C(=O)N[C@H]1CSSC[C@@H](C(=O)N(C)[C@@H](CCCCNC(=O)[C@H](CN)NC(=O)CCCCCCCCCCCCCCCCC(=O)O)C(=O)N[C@H](C(=O)N[C@H](CCCCN)C(N)=O)C(c2ccccc2)c2ccccc2)NC1=O)C(c1ccccc1)c1ccccc1)[C@@H](C)O [compound 206] (Isovaleryl-E(OMe)TH[Dip]PCC[NMeK]([Dap-C18 diacid])[Dip][dK]-NH2; disulfide 6-7) | DC50 [1, 7]: 10 to 100 nM; IC50 [2, 8]: 10 to 100 nM |
|  |  | 10 to 100 | 10 to 100 | C[C@@H](O)[C@H](NC(=O)[C@H](CCC(=O)O)NC(=O)c1cccnc1)C(=O)N[C@@H](Cc1c[nH]cn1)C(=O)N[C@H](C(=O)N1CCC[C@H]1C(=O)N[C@H]1CSSC[C@@H](C(=O)N(C)[C@@H](CCCCNC(=O)COCCOCCNC(=O)COCCOCCNC(=O)[C@H](CN)NC(=O)CCCCCCCCCCCCCCCCC(=O)O)C(=O)N[C@H](CC(=O)N[C@H](CCCCN)C(N)=O)Cc2ccccc2)NC1=O)C(c1ccccc1)c1ccccc1 [compound 299] (Nicotinoyl-ETH[Dip]PCC[NMeK]([AEEA-AEEA-Dap-C18 diacid])[β3hF][dK]-NH2; disulfide 6-7) |  |
| 10 to 100 | 10 to 100 |  |  | CC(C)CC(=O)N[C@@H](CCC(=O)O)C(=O)N[C@H](C(=O)N[C@@H](Cc1c[nH]cn1)C(=O)N[C@H](C(=O)N1CCC[C@H]1C(=O)N[C@H]1CSSC[C@@H](C(=O)N[C@@H](CCCCNC(=O)COCCOCCNC(=O)COCCOCCNC(=O)CC[C@H](NC(=O)CCCCCCCCCCCCCCCCC(=O)O)C(=O)O)C(=O)N[C@H](CC(=O)N[C@H](CCCCN)C(N)=O)Cc2ccccc2)NC1=O)C(c1ccccc1)c1ccccc1)[C@@H](C)O [Compd ID 31, Isovaleric Acid-E-T-H-[Dpa]-P-[Cys]-[Cys]-[Lys(1PEG2_1PEG2_IsoGlu_C18_Diacid)]-[bhPhe]-[(D)Lys]-NH2] (Isovaleryl-ETH[Dip]PCCK([AEEA-AEEA-γGlu-C18 diacid])[β3hF][dK]-NH2; disulfide 6-7) |  |
|  |  | 10 to 100 | 10 to 100 | CC(C)CC(=O)N[C@@H](CCC(=O)O)C(=O)N[C@H](C(=O)N[C@@H](Cc1c[nH]cn1)C(=O)N[C@H](C(=O)N1CCC[C@H]1C(=O)N[C@H]1CSSC[C@@H](C(=O)N(C)[C@@H](CCCCNC(=O)COCCOCCNC(=O)COCCOCCNC(=O)[C@H](CN)NC(=O)CCCCCCCCCCCCCCCCC(=O)O)C(=O)N[C@H](CC(=O)N[C@H](CCCCN)C(=O)N(C)[C@@H](CO)C(N)=O)Cc2ccccc2)NC1=O)C(c1ccccc1)c1ccccc1)[C@@H](C)O [compound 260] (Isovaleryl-ETH[Dip]PCC[NMeK]([AEEA-AEEA-Dap-C18 diacid])[β3hF][dK][NMeS]-NH2; disulfide 6-7) |  |
|  |  |  |  | COC(=O)CC[C@H](NC(=O)CC(C)C)C(=O)N[C@@H](CO)C(=O)N[C@@H](Cc1c[nH]cn1)C(=O)N(C)[C@@H](Cc1ccccc1)C(=O)N1CCC[C@H]1C(=O)N[C@H]1CSSC[C@@H](C(=O)N(C)[C@@H](CCCCNC(=O)CCCCCNC(=O)C[N+](C)(C)CCNC(=O)CCCCCCCCCCCCCCCCC(=O)O)C(=O)N[C@H](C(=O)N[C@H](CCCCN)C(N)=O)C(c2ccccc2)c2ccccc2)NC1=O [compound 148] (Isovaleryl-E(OMe)SH[NMeF]PCC[NMeK]([Ahx-X1])[Dip][dK]-NH2; disulfide 6-7) | DC50 [1, 7]: > 500 nM; IC50 [2, 8]: > 500 nM |
|  |  | 10 to 100 | 10 to 100 | CC(C)CC(=O)N[C@@H](CCC(=O)O)C(=O)N[C@H](C(=O)N[C@@H](Cc1c[nH]cn1)C(=O)N[C@H](C(=O)N1CCC[C@H]1C(=O)N[C@H]1CCSSCC[C@@H](C(=O)N[C@@H](CCCCNC(=O)COCCOCCNC(=O)COCCOCCNC(=O)[C@H](CN)NC(=O)CCCCCCCCCCCCCCCCC(=O)O)C(=O)N[C@H](CC(=O)N[C@H](CCCCN)C(N)=O)Cc2ccccc2)NC1=O)C(c1ccccc1)c1ccccc1)[C@@H](C)O [compound 268] (Isovaleryl-ETH[Dip]P[hCys][hCys]K([AEEA-AEEA-Dap-C18 diacid])[β3hF][dK]-NH2; disulfide 6-7) |  |
| 10 to 100 | 10 to 100 |  |  | CC[C@H](C)[C@H](NC(=O)[C@@H]1CSSC[C@H](NC(=O)[C@@H](NC(=O)[C@H](Cc2c[nH]cn2)NC(=O)[C@@H](NC(=O)[C@H](CCC(=O)O)NC(=O)CC(C)C)[C@@H](C)O)C(c2ccccc2)c2ccccc2)C(=O)N1)C(=O)N[C@@H](CCCCNC(=O)COCCOCCNC(=O)COCCOCCNC(=O)CC[C@H](NC(=O)CCCCCCCCCCCCCCCCC(=O)O)C(=O)O)C(=O)N[C@H](CC(=O)N[C@H](CCCCN)C(N)=O)Cc1ccccc1 [Compd 30] (Isovaleryl-ETH[Dip]CCIK([AEEA-AEEA-γGlu-C18 diacid])[β3hF][dK]-NH2; disulfide 5-6) |  |

— US20250277012A1 (Protagonist Therapeutics, Inc., priority 2021, published 2025)
